Laboratory results as given in US4975538A, “Antibiotic sulfonylaminocarbonyl activated beta-lactams” (The Upjohn Company, priority 1989, dated 1990).
Values after ≈ are worked out from the molar mass of the structure shown.

Key:
Experiment in all cases: Minimum Inhibitory Concentration (MIC), agar dilution in Mueller Hinton Agar
Assay type in all cases: cell-based
Proteus Vulgaris = conditions: 20 h, culture number 9679
Description: (§1) The compounds of this invention and their respective pharmaceutically acceptable salts have antibiotic activity against a variety of gram-negative bacteria including Escherichia coli, Klebsiella pneumoniae, and Pseudomonas aeruginosa. The compounds are useful for treating bacterial infections in animals, including and most preferably humans. Compounds of the invention are tested for in vitro antimicrobial activity using standard testing procedures such as the determination of minimum inhibitory concentration (MIC) by methods described in "Methods for Dilution Antimicrobial Susceptibility Tests for Bacteria That Grow Aerobically" (M7-A) Published December 1985 by the National Committee for Clinical Laboratory Standards, 771 East Lancaster Avenue, Villanova, Pa. 19084. Briefly, MIC values are determined in unsupplemented Mueller Hinton Agar (MHA). The compounds tested are diluted serially into molten MHA at 47° C. The agar is poured into petri dishes and allowed to harden. The various bacteria used for testing are grown overnight on MHA at 35° C. and transferred to Tryptiease Soy Broth (TSB) until a turbidity of 0.5 McFarland standard is obtained. The bacteria are diluted one to twenty in TSB and inoculated on the plates (1 μl using a Steers replicator).

Serratia Marcescens = conditions: 20 h
Description: as §1

Streptococcus Pneumoniae = conditions: 20 h, culture number 41
Description: as §1

Escherichia Coli = conditions: 20 h
Description: as §1

Staphylococcus Aureus = conditions: 20 h
Description: as §1

Klebsiella Pneumoniae = conditions: 20 h, culture number 58
Description: as §1

Streptococcus Faecalis = conditions: Enterococcus faecalis, 20 h; culture number 694
Description: as §1

Enterobacter Cloacae = conditions: 20 h
Description: as §1

Pseudomonas Aeruginosa = conditions: 20 h
Description: as §1

Citrobacter Freundli = conditions: 20 h, culture number 3507
Description: as §1

Klebsiella Oxytoca = conditions: 20 h
Description: as §1

Streptococcus Pyogenes = conditions: 20 h, culture number 152
Description: as §1

Compound | MIC (Proteus Vulgaris) [µg/mL] | MIC (Serratia Marcescens; culture number 6888) [µg/mL] | MIC (Streptococcus Pneumoniae) [µg/mL] | MIC (Escherichia Coli; culture number 9379) [µg/mL] | MIC (Escherichia Coli; culture number 9380) [µg/mL] | MIC (Escherichia Coli; culture number 9451) [µg/mL] | MIC (Staphylococcus Aureus; culture number 3665) [µg/mL] | MIC (Staphylococcus Aureus; culture number 6685) [µg/mL] | MIC (Staphylococcus Aureus; culture number 9218) [µg/mL] | MIC (Klebsiella Pneumoniae) [µg/mL] | MIC (Streptococcus Faecalis) [µg/mL] | MIC (Enterobacter Cloacae; culture number 9381) [µg/mL] | MIC (Enterobacter Cloacae; culture number 9382) [µg/mL] | MIC (Pseudomonas Aeruginosa; culture number 231) [µg/mL] | MIC (Pseudomonas Aeruginosa; culture number 9191) [µg/mL] | MIC (Citrobacter Freundli) [µg/mL] | MIC (Klebsiella Oxytoca; culture number 9383) [µg/mL] | MIC (Klebsiella Oxytoca; culture number 9384) [µg/mL] | MIC (Streptococcus Pyogenes) [µg/mL] | MIC (Serratia Marcescens; culture number 9888) [µg/mL]
Cn1cc(O)c(=O)cc1C(=O)NN1CCN(S(=O)(=O)NC(=O)N2C[C@H](NC(=O)/C(=N\OC(C)(C)C(=O)O)c3csc(N)n3)C2=O)C1=O [E42 (a)] | 0.5 (≈ 0.716 µM) | 0.25 (≈ 0.358 µM) | > 128 | 0.06 (≈ 0.0859 µM) | < 0.015 | 0.06 (≈ 0.0859 µM) | > 128 | > 128 | > 128 | 2 (≈ 2.86 µM) | > 128 | 64 (≈ 91.6 µM) | 4 (≈ 5.73 µM) | 2 (≈ 2.86 µM) | 2 (≈ 2.86 µM) | 0.5 (≈ 0.716 µM) | 1 (≈ 1.43 µM) | 0.5 (≈ 0.716 µM) | 128 (≈ 183 µM) | –
CC(C)(O/N=C(\C(=O)N[C@H]1CN(C(=O)NS(=O)(=O)N2CCN(C(=O)c3cc(=O)c(O)c[nH]3)CC2=O)C1=O)c1csc(N)n1)C(=O)O [Compound E17] | 0.25 (≈ 0.366 µM) | 0.125 (≈ 0.183 µM) | > 64 | 0.015 (≈ 0.0219 µM) | < 0.008 | 0.015 (≈ 0.0219 µM) | > 64 | > 64 | > 64 | 1 (≈ 1.46 µM) | > 64 | 64 (≈ 93.6 µM) | 1 (≈ 1.46 µM) | 0.5 (≈ 0.731 µM) | 0.5 (≈ 0.731 µM) | 0.25 (≈ 0.366 µM) | 0.5 (≈ 0.731 µM) | 0.125 (≈ 0.183 µM) | 16 (≈ 23.4 µM) | –
CC(C)(O/N=C(\C(=O)N[C@H]1CN(C(=O)NS(=O)(=O)n2nc(-c3cc(=O)c(O)c[nH]3)[nH]c2=O)C1=O)c1csc(N)n1)C(=O)O [E23 (a), propanoic acid, 2-[[[1-(2-amino-4-thiazolyl)-2-[[1-[[[[3-(1,4-dihydro-5-hydroxy-4-oxo-2-pyridinyl)-2,5-dihydro-5-oxo-1H-1,2,4-triazol-1-yl]sulfonyl]amino]carbonyl]-2-oxo-3-azetidinyl]amino]-2-oxoethylidene]amino]oxy]-2-methyl-, [S-(Z)]-] | 0.03 (≈ 0.0468 µM) | 0.015 (≈ 0.0234 µM) | > 64 | < 0.008 | < 0.008 | < 0.008 | > 64 | > 64 | > 64 | 0.25 (≈ 0.39 µM) | > 64 | 4 (≈ 6.24 µM) | 0.5 (≈ 0.781 µM) | 0.5 (≈ 0.781 µM) | 0.5 (≈ 0.781 µM) | 0.03 (≈ 0.0468 µM) | 0.03 (≈ 0.0468 µM) | 0.03 (≈ 0.0468 µM) | 16 (≈ 25 µM) | –
Nc1nc(C(=NOCC(=O)O)C(=O)NC2CN(C(=O)NS(=O)(=O)N3CC(CNC(=O)c4cc(=O)c(O)c[nH]4)OC3=O)C2=O)cs1 (stereo not shown) [E27 (a), [[[1-(2-amino-4-thiazolyl)-2-[[1-[[[[4-[[(1,4-dihydro-5-hydroxy-4-oxo-2-pyridinyl)carbonyl]amino]-[2-oxo-5-oxazolydinyl]methyl]sulfonyl]amino]carbonyl]-2-oxo-3-azetidinyl]amino]-2-oxoethylidene]amino]oxy] acetic acid] | 0.5 (≈ 0.745 µM) | – | – | < 0.06 | < 0.06 | < 0.06 | – | – | – | 0.5 (≈ 0.745 µM) | – | 128 (≈ 191 µM) | 2 (≈ 2.98 µM) | 4 (≈ 5.96 µM) | 64 (≈ 95.3 µM) | 0.25 (≈ 0.372 µM) | 4 (≈ 5.96 µM) | 0.25 (≈ 0.372 µM) | 16 (≈ 23.8 µM) | 0.5 (≈ 0.745 µM)
CCCCn1cc(O)c(=O)cc1C(=O)NN1CCN(S(=O)(=O)NC(=O)N2C[C@H](NC(=O)/C(=N\OC(C)(C)C(=O)O)c3csc(N)n3)C2=O)C1=O [E42 (b), Propanoic acid, 2-[[[1-(2-amino-4-thiazolyl)-2-[[1-[[[[3-[[(1-butyl-1,4-dihydro-5-hydroxy-4-oxo-2-pyridinyl)carbonyl]amino]-2-oxo-1-imidazolidinyl]sulfonyl]amino]carbonyl]-2-oxo-3-azetidinyl]amino]-2-oxoethylidene]amino]oxy]-2-methyl-, [S-(Z)]-] | 0.25 (≈ 0.338 µM) | 1 (≈ 1.35 µM) | > 64 | 0.5 (≈ 0.675 µM) | 0.25 (≈ 0.338 µM) | 0.5 (≈ 0.675 µM) | > 64 | > 64 | > 64 | 0.5 (≈ 0.675 µM) | > 64 | > 64 | 1 (≈ 1.35 µM) | > 64 | 64 (≈ 86.4 µM) | 2 (≈ 2.7 µM) | 4 (≈ 5.4 µM) | 0.25 (≈ 0.338 µM) | 16 (≈ 21.6 µM) | –
CC(C)(O/N=C(\C(=O)N[C@H]1CN(C(=O)NS(=O)(=O)N2CCN(NC(=O)c3cccc(=O)n3O)C2=O)C1=O)c1csc(N)n1)C(=O)O [E42 (c), Propanoic acid, 2-[[[1-(2-amino-4-thiazolyl)-2[[1-[[[[3-[[(1,6-dihydro-1-hydroxy-2-oxo-6-pyridinyl)carbonyl]amino]-2-oxo-1-imidazolidinyl]sulfonyl]amino]carbonyl]-2-oxo-3-azetidinyl]-amino]-2-oxoethylidene]amino]oxy]-2-methyl-, [S-(Z)]-] | 0.06 (≈ 0.0876 µM) | 0.5 (≈ 0.73 µM) | > 64 | 0.25 (≈ 0.365 µM) | 0.25 (≈ 0.365 µM) | 0.5 (≈ 0.73 µM) | > 64 | > 64 | > 64 | 0.5 (≈ 0.73 µM) | > 64 | > 64 | 1 (≈ 1.46 µM) | 4 (≈ 5.84 µM) | 8 (≈ 11.7 µM) | 0.5 (≈ 0.73 µM) | 8 (≈ 11.7 µM) | 0.5 (≈ 0.73 µM) | 4 (≈ 5.84 µM) | –
Nc1nc(/C(=N/OCC(=O)O)C(=O)N[C@H]2CN(C(=O)NS(=O)(=O)N3CCN(C(=O)c4cc(=O)c(O)c[nH]4)CC3)C2=O)cs1 [Compound E19, Acetic acid, 2-[[[1-(2-amino-4-thiazolyl)-2-[[1-[[[[4-[(1,4-dihydro-5-hydroxy-4-oxo-2-pyridinyl)carbonyl]-1-piperazinyl]sulfonyl]amino]carbonyl]-2-oxo-3-azetidinyl]amino]-2-oxoethylidene]amino]oxy]-, [S-(Z)]-] | 4 (≈ 6.23 µM) | 1 (≈ 1.56 µM) | > 128 | 0.25 (≈ 0.39 µM) | 0.06 (≈ 0.0935 µM) | 0.125 (≈ 0.195 µM) | > 128 | > 128 | > 128 | 8 (≈ 12.5 µM) | > 128 | 128 (≈ 200 µM) | 16 (≈ 24.9 µM) | 8 (≈ 12.5 µM) | 8 (≈ 12.5 µM) | 2 (≈ 3.12 µM) | 64 (≈ 99.8 µM) | 0.5 (≈ 0.779 µM) | 64 (≈ 99.8 µM) | –
CC(C)(ON=C(C(=O)NC1CN(C(=O)NS(=O)(=O)N2CC(CNC(=O)c3cc(=O)c(O)c[nH]3)OC2=O)C1=O)c1csc(N)n1)C(=O)O (stereo not shown) [E27 (b)] | 0.5 (≈ 0.715 µM) | – | – | 0.125 (≈ 0.179 µM) | 0.03 (≈ 0.0429 µM) | 0.06 (≈ 0.0858 µM) | – | – | – | 2 (≈ 2.86 µM) | – | 128 (≈ 183 µM) | 8 (≈ 11.4 µM) | 4 (≈ 5.72 µM) | 8 (≈ 11.4 µM) | 0.5 (≈ 0.715 µM) | 4 (≈ 5.72 µM) | 0.25 (≈ 0.357 µM) | 64 (≈ 91.5 µM) | 0.5 (≈ 0.715 µM)
